Source: patent publication EP3928779A1 (Chugai Seiyaku Kabushiki Kaisha, priority 2014, dated 2016)

Key:
[1] = test system: rat small-intestinal brush border membrane vesicles; assay: Inhibitory effect on 33PO4 uptake into rat small-intestinal brush border membrane vesicles (rapid filtration method); type: biochemical; conditions: 33PO4 uptake into rat small-intestinal BBMVs; test compound 1 µM; reacted for 60 seconds
Method in brief: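 Uptake of ^33PO4 was measured by rapid filtration and liquid scintillation counting of filter-retained vesicles, after quenching with ice-cold 110 mM NaCl/1 mM KH2PO4/10 mM HEPES pH 7.5. Vesicles were brush border membranes from the upper small intestine of female Wistar rats aged 4–5 weeks.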

[2] = test system: adenine-induced renal failure rat; assay: Suppressive effect on rise in serum phosphorus concentration of adenine-induced renal failure rat (0.1% in feed, 3 days); type: in vivo; conditions: feed or water, 72 h, adenine-induced renal failure Wistar male rat, test compound 0.1% of mass concentration in feed for 3 days, Fiske-Subbarow method, read-out: rate (%) of suppression of a rise in serum phosphorus concentration
Text: Adenine was forcedly administered orally to each Wistar male rat (7-8 weeks old) to impair renal functions and thereby prepare a hyperphosphatemia model ([…], Nagano N, Burke SK, Fukushima N. Sevelamer hydrochloride prevents ectopic calcification and renal osteodystrophy in chronic renal failure rats. Kidney Int. 2003 Aug; 64 (2): 441-50). Each test compound was mixed at a ratio of 0.1% of mass concentration with feed. The animal was fed with a given amount of the feed for 3 days. A group given feed non-supplemented with a test compound was used as a reference pathological group, and an adenine-unadministered group given feed non-supplemented with a test compound was used as a normal group. 3 days after the start of administration of the test compound, blood was collected from the jugular vein, and serum was collected. Serum phosphorus concentrations were measured by the Fiske-Subbarow method. The rate of suppression of a rise in serum phosphorus concentration was determined according to the following expression: Rate (%) of suppression of a rise in serum phosphorus concentration = (1-[(Serum phosphorus concentration of the test compound-treated pathological group)-(Serum phosphorus concentration of the normal group)]/[(Serum phosphorus concentration of the reference pathological group)-(Serum phosphorus concentration of the normal group)]) × 100 [formula] As a result, each test compound was confirmed to have a suppressive effect on a rise in serum phosphorus concentration. […]

Compound | Rate of uptake inhibition (%) (1 µM) [1] | inhibition in vivo at 0.1 % in feed [2] [%]
C[C@]12CCCN1N(Cc1ccc(C#CCCCC(=O)O)c(F)c1F)C(=O)C(C(=O)Nc1ccc(C(F)(F)F)cc1-c1cc(C(F)(F)F)ncn1)=C2O [Example 129, 6-[4-[[(4aR)-4-Hydroxy-4a-methyl-2-oxo-3-[[4-(trifluoromethyl)-2-[6-(trifluoromethyl)pyrimidin-4-yl]phenyl]carbamoyl]-6,7-dihydro-5H-pyrrolo[1,2-b]pyridazin-1-yl]methyl]-2,3-difluorophenyl]hex-5-ynoic acid] | 63 | 17
C[C@]12CCCN1N(Cc1ccc(C#CCN3CCOCC3)c(F)c1F)C(=O)C(C(=O)Nc1ccc(C(F)(F)F)cc1-c1ccc(C(F)(F)F)nc1)=C2O [Example 140, (4aR)-1-[[2,3-Difluoro-4-(3-morpholin-4-ylprop-1-ynyl)phenyl]methyl]-4-hydroxy-4a-methyl-2-oxo-N-[4-(trifluoromethyl)-2-[6-(trifluoromethyl)pyridin-3-yl]phenyl]-6,7-dihydro-5H-pyrrolo[1,2-b]pyridazine-3-carboxamide] | 77 | 39
C[C@]12CCCN1N(Cc1ccc(OCCCOC[C@H](O)CO)c(F)c1F)C(=O)C(C(=O)Nc1ccc(C(F)(F)F)cc1-c1ccc(C(F)(F)F)nc1)=C2O [Example 147, (4aR)-1-[[4-[3-[(2R)-2,3-Dihydroxypropoxy]propoxy]-2,3-difluorophenyl]methyl]-4-hydroxy-4a-methyl-2-oxo-N-[4-(trifluoromethyl)-2-[6-(trifluoromethyl)pyridin-3-yl]phenyl]-6,7-dihydro-5H-pyrrolo[1,2-b]pyridazine-3-carboxamide] | 57 | 35
C[C@]12CCCN1N(Cc1ccc(OCCCCOC[C@H](O)CO)c(F)c1F)C(=O)C(C(=O)Nc1ccc(C(F)(F)F)cc1-c1cc(C(F)(F)F)ncn1)=C2O [Example 152, (4aR)-1-[[4-[4-[(2R)-2,3-Dihydroxypropoxy]butoxy]-2,3-difluorophenyl]methyl]-4-hydroxy-4a-methyl-2-oxo-N-[4-(trifluoromethyl)-2-[6-(trifluoromethyl)pyrimidin-4-yl]phenyl]-6,7-dihydro-5H-pyrrolo[1,2-b]pyridazine-3-carboxamide] | 54 | 26
C[C@]12CCCN1N(Cc1ccc(OCCCCCCOC[C@H](O)CO)c(F)c1F)C(=O)C(C(=O)Nc1cnc(C(F)(F)F)nc1-c1ccc(C(F)(F)F)nc1)=C2O [Example 156, (4aR)-1-[[4-[6-[(2R)-2,3-Dihydroxypropoxy]hexoxy]-2,3-difluorophenyl]methyl]-4-hydroxy-4a-methyl-2-oxo-N-[2-(trifluoromethyl)-4-[6-(trifluoromethyl)pyridin-3-yl]pyrimidin-5-yl]-6,7-dihydro-5H-pyrrolo[1,2-b]pyridazine-3-carboxamide] | 59 | 21
C[C@]12CCCN1N(Cc1ccc(OCCN3CCOCC3)c(F)c1F)C(=O)C(C(=O)Nc1ccc(C(F)(F)F)cc1-c1cc(C(F)(F)F)ncn1)=C2O [Example 157, (4aR)-1-[[2,3-Difluoro-4-(2-morpholin-4-ylethoxy)phenyl]methyl]-4-hydroxy-4a-methyl-2-oxo-N-[4-(trifluoromethyl)-2-[6-(trifluoromethyl)pyrimidin-4-yl]phenyl]-6,7-dihydro-5H-pyrrolo[1,2-b]pyridazine-3-carboxamide] | 89 | 30
C[C@]12CCCN1N(Cc1ccc(CN3CCOCC3)c(F)c1F)C(=O)C(C(=O)Nc1ccc(C(F)(F)F)cc1-c1ccc(C(F)(F)F)nc1)=C2O.Cl [Example 164, (4aR)-1-[[2,3-Difluoro-4-(morpholin-4-ylmethyl)phenyl]methyl]-4-hydroxy-4a-methyl-2-oxo-N-[4-(trifluoromethyl)-2-[6-(trifluoromethyl)pyridin-3-yl]phenyl]-6,7-dihydro-5H-pyrrolo[1,2-b]pyridazine-3-carboxamide; hydrochloride] | 64 | 14
C[C@]12CCCN1N(Cc1cccc(Cl)c1F)C(=O)C(C(=O)Nc1cc(F)c(Br)c(F)c1)=C2O [Example 196, (4aR)-N-(4-Bromo-3,5-difluorophenyl)-1-[(3-chloro-2-fluorophenyl)methyl]-4-hydroxy-4a-methyl-2-oxo-6,7-dihydro-5H-pyrrolo[1,2-b]pyridazine-3-carboxamide] | 90 | 35
CN1[C@@H](C(C)(C)C)C(O)=C(C(=O)Nc2ccc(C(F)(F)F)cc2-c2cc(C(F)(F)F)ncn2)C(=O)N1Cc1ccc(OCCN2CCOCC2)c(F)c1F [Example 264, (3S)-3-tert-Butyl-1-[[2,3-difluoro-4-(2-morpholin-4-ylethoxy)phenyl]methyl]-4-hydroxy-2-methyl-6-oxo-N-[4-(trifluoromethyl)-2-[6-(trifluoromethyl)pyrimidin-4-yl]phenyl]-3H-pyridazine-5-carboxamide] | 48 | 15
CN1[C@@H](C(C)(C)C)C(O)=C(C(=O)Nc2ccc(Cl)cc2-c2ccc(C(F)(F)F)nc2)C(=O)N1Cc1ccc(OCCN2CCOCC2)c(F)c1F [Example 267, (3S)-3-tert-Butyl-N-[4-chloro-2-[6-(trifluoromethyl)pyridin-3-yl]phenyl]-1-[[2,3-difluoro-4-(2-morpholin-4-ylethoxy)phenyl]methyl]-4-hydroxy-2-methyl-6-oxo-3H-pyridazine-5-carboxamide] | 71 | 18
CSc1ccc(-c2cc(Cl)ccc2NC(=O)C2=C(O)[C@H](C(C)(C)C)N(C)N(Cc3ccc(OCCN4CCOCC4)c(F)c3F)C2=O)cn1 [Example 269, (3S)-3-tert-Butyl-N-[4-chloro-2-(6-methylsulfanylpyridin-3-yl)phenyl]-1-[[2,3-difluoro-4-(2-morpholin-4-ylethoxy)phenyl]methyl]-4-hydroxy-2-methyl-6-oxo-3H-pyridazine-5-carboxamide] | 80 | 15
Cc1c(C#N)ncnc1-c1cc(C(F)(F)F)ccc1NC(=O)C1=C(O)[C@H](C(C)(C)C)N(C)N(Cc2ccc(OCCN3CCOCC3)c(F)c2F)C1=O [Example 270, (3S)-3-tert-Butyl-N-[2-(6-cyano-5-methylpyrimidin-4-yl)-4-(trifluoromethyl)phenyl]-1-[[2,3-difluoro-4-(2-morpholin-4-ylethoxy)phenyl]methyl]-4-hydroxy-2-methyl-6-oxo-3H-pyridazine-5-carboxamide] | 75 | 20
CN1N(Cc2ccc(OCCN3CCOCC3)c(F)c2F)C(=O)C(C(=O)Nc2ccc(C(F)(F)F)cc2-c2cc(C(F)(F)F)ncn2)=C(O)C12CCC2 [Example 317, 6-[[2,3-Difluoro-4-(2-morpholin-4-ylethoxy)phenyl]methyl]-9-hydroxy-5-methyl-7-oxo-N-[4-(trifluoromethyl)-2-[6-(trifluoromethyl)pyrimidin-4-yl]phenyl]-5,6-diazaspiro[3.5]non-8-ene-8-carboxamide] | 57 | 22
CN1N(Cc2ccc(OCCCCC(=O)O)c(F)c2F)C(=O)C(C(=O)Nc2ccc(C(F)(F)F)cc2-c2cc(C(F)(F)F)ncn2)=C(O)C12CCCC2 [Example 333, 5-[2,3-Difluoro-4-[[10-hydroxy-6-methyl-8-oxo-9-[[4-(trifluoromethyl)-2-[6-(trifluoromethyl)pyrimidin-4-yl]phenyl]carbamoyl]-6,7-diazaspiro[4.5]dec-9-en-7-yl]methyl]phenoxy]pentanoic acid] | 29 | 8
(4aS)-1-[(3-Fluorophenyl)methyl]-4-hydroxy-4a-methyl-N-[5-methyl-2-(trifluoromethyl)furan-3-yl]-2-oxo-6,7-dihydro-5H-pyrrolo[1,2-b]pyridazine-3-carboxamide [Example 8] | 37 | –
(4aS)-1-[(3-Fluorophenyl)methyl]-4-hydroxy-N-[5-methyl-2-(trifluoromethyl)furan-3-yl]-2-oxo-5,6,7,8-tetrahydro-4aH-pyrido[1,2-b]pyridazine-3-carboxamide [Example 16] | 38 | –
(4aS)-1-[(5,6-Difluoro-1H-indol-7-yl)methyl]-4-hydroxy-N-[5-methyl-2-(trifluoromethyl)furan-3-yl]-2-oxo-5,6,7,8-tetrahydro-4aH-pyrido[1,2-b]pyridazine-3-carboxamide [Example 17] | 33 | –
(4aS,5S,8R)-1-(3-Fluorobenzyl)-4-hydroxy-N-(5-methyl-2-(trifluoromethyl)furan-3-yl)-2-oxo-2,4a,5,6,7,8-hexahydro-1H-5,8-methanopyrido[1,2-b]pyridazine-3-carboxamide [Example 20] | 21 | –
